One test has as its system LOX. Further details: method as in PMID 6131892. Conditions: cited from earlier work.
A further test addresses T1, Lysyl oxidase (LOX) (Bos taurus, UniProt P33072).
T1 construct: LOX was isolated from bovine aorta; from tissue; host or cells: bovine aorta
T1 sequence (P33072 170-418): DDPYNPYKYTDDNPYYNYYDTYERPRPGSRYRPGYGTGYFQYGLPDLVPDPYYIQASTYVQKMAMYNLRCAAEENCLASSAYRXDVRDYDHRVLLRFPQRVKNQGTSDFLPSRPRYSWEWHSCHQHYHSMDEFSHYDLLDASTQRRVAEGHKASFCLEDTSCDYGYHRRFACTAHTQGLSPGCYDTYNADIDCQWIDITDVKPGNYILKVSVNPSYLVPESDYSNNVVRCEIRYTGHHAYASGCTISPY
Description: LOX activity assay (Amplex UltraRed/HRP fluorescence) after preincubation of enzyme with inhibitor. Format: biochemical, bovine. The note with it: for IC50 / Selectivity factor (LOX IC50 value divided by LSDAO IC50 value): 10-min preincubation; for IC50: 37 °C, read-out: IC50 LOX; for Selectivity factor (LOX IC50 value divided by LSDAO IC50 value): LOX vs LSDAO; for remaining activity at 4 µM: 4 µM inhibitor; for remaining activity at 4 µM / remaining activity at 7 µM / remaining activity at 20 µM / remaining activity at 100 µM / remaining activity at 500 µM / remaining activity at 40 µM: read-out: Average Percent Activity Remaining, LOX; for remaining activity at 7 µM: 7 µM inhibitor; for remaining activity at 20 µM: 20 µM inhibitor; for remaining activity at 100 µM: 100 µM inhibitor; for remaining activity at 500 µM: 500 µM inhibitor; for LOX k2 (range) / KI (inactivation): Kitz-Wilson analysis; for LOX k2 (range): rate constant for irreversible reaction; for KI (inactivation): reversible binding constant, read-out: LOX KI^-1 (range); for remaining activity at 40 µM: 40 µM inhibitor. The protocol: LOX was isolated from bovine aorta at 4 °C using slight modifications of previously published procedures. All steps were carried out at in 16 mM phosphate, pH 7.8 (buffer B). After blending the aorta in buffer B containing 400 mM NaCl and 1 mM EDTA to remove soluble contaminants, the enzyme was extracted with buffer B containing 4 M urea and 1 mM EDTA. The crude enzyme extract was filtered, diluted with an equal volume of buffer B to obtain a urea concentration of 2 M, and loaded onto a DEAE column. After washing with buffer B containing 400 mM NaCl, the enzyme was eluted with buffer B containing 400 mM NaCl and 6 M urea. The urea concentration was reduced to 4 M by adding buffer B, and the solution was added to a slurry of ceramic hydroxyapatite in buffer B containing 4 M urea. After stirring, the supernatant was removed by filtration and dialyzed overnight against buffer B. The solution was added to a slurry of ceramic hydroxyapatite in buffer B, washed with small portions of 1 M phosphate and then buffer B, and then eluted with buffer B containing 6 M urea and 500 mM NaCl. After concentration to about 20 mL, the protein was applied to a Sephacryl S-200 gel filtration column preequilibrated with buffer B containing 50 mM NaCl, 1 mM EDTA, and 6 M urea and eluted with the same buffer. Active fractions were concentrated to 1 mL. Total protein concentration for 6 M urea solutions[33] was determined by its absorption at 280 nm using a molar extinction coefficient of 8.39 × 10^4 M^−1 cm ^−1.
(§1) The activity assay is adopted from the method described by Palamakumbura et al.[35]. Enzyme and inhibitor were incubated at 37 °C for the desired inhibition time, diluted into the assay mixture, and analyzed by fluorescence (Agilent Technologies Cary Eclipse Fluorescence Spectrometer, Cary Eclipse Software, 37 °C, λex = 568 and λem = 581 nm). The assay was carried out in boric acid buffer (50 mM, pH 8.2) with 1.2 M urea for LOX or in phosphate buffer (0.1 M, pH = 7.0) for LSDAO. The final reagent concentrations in the assay mixture were 10 mM cadaverine, 10 μM Amplex UltraRed (Life Technologies, Carlsbad, CA), and 1 U/mL horse radish peroxidase (Amresco, Solon, OH).
(§2) The enzyme activity, which is proportional to the rate of increase in fluorescence, was measured for each experiment. Residual activity was calculated by dividing each rate by a maximum rate determined in the absence of inhibitor such that [residual activity] = ([rate with inhibitor] – [baseline rate])/([maximum rate] – [baseline rate]). […] The residual activities from replicate experiments were averaged. For each inhibitor concentration, log([average residual activity]) was plotted against inhibition time. Linear lines of best fit forced through the origin were calculated for each data set using Graphpad Prism 5.0b (La Jolla, CA). For each inhibitor, the slopes of these lines (min^−1) were plotted as –1/slope against 1/[inhibitor concentration] to produce a Kitz–Wilson plot.
(§3) To quantify the selectivity of each inhibitor, we defined a numerical “selectivity factor” as the inhibitor's IC50 value for LOX divided by its IC50 value for LSDAO (Figure 3(C)).

The target of test [1] is T2, lentil seedling diamine oxidase (LSDAO) (Lens culinaris, UniProt P49252).
T2 construct: Eight-day-old lentil seedlings (Lens esculenta) were blended and extracted; from tissue; host or cells: eight-day-old lentil seedlings (Lens esculenta)
T2 sequence (P49252 19-667): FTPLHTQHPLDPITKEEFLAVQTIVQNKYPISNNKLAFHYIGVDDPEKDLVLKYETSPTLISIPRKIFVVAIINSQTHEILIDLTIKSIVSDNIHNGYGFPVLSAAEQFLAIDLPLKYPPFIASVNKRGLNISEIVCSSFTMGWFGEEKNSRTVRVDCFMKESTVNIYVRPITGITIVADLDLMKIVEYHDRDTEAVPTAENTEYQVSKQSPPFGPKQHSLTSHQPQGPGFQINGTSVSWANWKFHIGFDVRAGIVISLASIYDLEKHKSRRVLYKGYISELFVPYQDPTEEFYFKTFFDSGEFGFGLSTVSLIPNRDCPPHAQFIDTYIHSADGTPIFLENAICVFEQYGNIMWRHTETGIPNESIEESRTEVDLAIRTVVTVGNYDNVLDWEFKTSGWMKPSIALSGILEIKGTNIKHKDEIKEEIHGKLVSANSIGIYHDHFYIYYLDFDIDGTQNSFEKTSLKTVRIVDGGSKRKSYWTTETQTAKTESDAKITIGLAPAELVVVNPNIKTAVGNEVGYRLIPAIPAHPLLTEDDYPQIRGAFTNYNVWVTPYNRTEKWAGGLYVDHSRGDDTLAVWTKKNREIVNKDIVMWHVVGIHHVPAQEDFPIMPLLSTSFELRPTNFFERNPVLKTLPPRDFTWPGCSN
Description: LSDAO activity assay (Amplex UltraRed/HRP fluorescence) after preincubation of enzyme with inhibitor. The test is classed as biochemical. The protocol:
The LSDAO extraction process was carried out at 4 °C according to the method of Floris et al.[30] with slight modifications. Eight-day-old lentil seedlings (Lens esculenta) were blended and extracted with phosphate buffer (5 mM, pH 6.0, buffer A). Ammonium sulfate (230 g/L, 40% saturation) was used to precipitate contaminants, and then additional ammonium sulfate (125 g/L, 60% saturation) was used to precipitate the LSDAO. The crude precipitate was redissolved, dialyzed against buffer A, applied to a DEAE column, and eluted with buffer A. Active fractions were adjusted to pH 6.5, applied to a CM resin column, and eluted with 5 mM phosphate buffer, pH 6.5. Active fractions were concentrated and the buffer was changed to 10 mM phosphate, pH 7.0 before the protein was applied to a Sephacryl S-300 column and eluted with the same buffer. The concentration of the LSDAO dimer was determined from its absorption at 278 nm in 0.1 M phosphate buffer[31] using a molar extinction coefficient of 2.45 × 10^5 M^−1 cm^−1.
as §1, §2, §3
From the slopes and y-intercepts of these lines, the kinetic parameters KI (the reversible binding constant) and k2 (the rate constant for irreversible reaction) (Figure 5(A)) can be calculated.

[2] abbreviates: Kitz-Wilson plot, pH 8.0 and 37 °C.
Setting [3] is: 10-min preincubation, 37 °C; read-out: IC50 LSDAO.
Setting [4] is: 4 min, read-out: Average Percent Activity Remaining, LSDAO.
[5] abbreviates: 10 min, read-out: Average Percent Activity Remaining, LSDAO.
[6] abbreviates: Kitz-Wilson analysis, rate constant for irreversible reaction.
The mark [7] stands for this setting: Kitz-Wilson analysis, reversible binding constant; read-out: LSDAO KI^-1 (range).

Here are results for four compounds from PMC6009937, “Comparing hydrazine-derived reactive groups as inhibitors of quinone-dependent amine oxidases” (Journal of Enzyme Inhibition and Medicinal Chemistry, 2017).

Values joined by “and” are separate entries in the source; they are usually repeats but may differ in a detail not shown here. Identical values can stand only once. Like-named read-outs stand apart in the source and are kept apart here.

On to `N#CCCN` [compound 2, β-aminopropionitrile], for which the “Inhibition of LOX at 10 μM” value with LOX (10 μM, 2-h incubation) is reported as “full inhibition”. Also, the half-maximal inhibitory concentration (IC50) (as a rule, the concentration at which inhibition is half-maximal) in the test on LOX (2-h incubation) was 0.2 µM. Also, in the test with LOX (setting [2]), the KI (inactivation) was 6 µM and the “k2 LOX” value is 0.16 min⁻¹.
Consider `CCCCCC(=O)NN` [compound 3], for which, on Lysyl oxidase (LOX), the IC50 stood at 20 µM; the “Selectivity factor (LOX IC50 value divided by LSDAO IC50 value)” value came to 10; the “LOX k2 (range)” value is 0.40 (0.23–1.4) min^-1 and 0.4 min^-1 and 0.40 min^-1; the KI (inactivation) was found to be 200 µM. Besides, on Lysyl oxidase (LOX) (4 min), the remaining activity – broadly, the signal under treatment as a percentage of the control signal – at 4 µM was 93%; the remaining activity at 7 µM is 78%; the remaining activity at 20 µM was determined as 69%; the remaining activity at 100 µM was 27%. Besides, the remaining activity at 500 µM on Lysyl oxidase (LOX) (4 min) was found to be 8%. Moreover, at Lysyl oxidase (LOX) (10 min), the remaining activity at 4 µM stood at 84%, the remaining activity at 7 µM is 75%, the remaining activity at 20 µM stood at 48% and the remaining activity at 100 µM was found to be 3%. Moreover, at Lysyl oxidase (LOX) (compared to phenylhydrazine), the “fold lower affinity for LOX than phenylhydrazine” value is recorded as 3 fold. The IC50 in test [1] (setting [3]) came to 2 µM. Moreover, in test [1] (setting [4]), the remaining activity at 1 µM was 90%, the remaining activity at 2 µM was 80%, the remaining activity at 4 µM is 71% and the remaining activity at 8 µM is 54%. In addition, in test [1] (setting [4]), the remaining activity at 14 µM was 40%, the remaining activity at 20 µM amounted to 33%, the remaining activity at 40 µM stood at 4% and the remaining activity at 500 µM stood at 0.7%. In addition, in test [1] (setting [5]), the remaining activity at 1 µM was found to be 76%, the remaining activity at 2 µM is 52%, the remaining activity at 4 µM stood at 33% and the remaining activity at 8 µM was 13%. Besides, in test [1] (setting [5]), the remaining activity at 14 µM was found to be 8% and the remaining activity at 20 µM was 4%. The “LSDAO k2 (range)” value in test [1] (setting [6]) is 0.67 (0.37–3.3) min^-1 and 0.7 min^-1 and 0.67 min^-1. Moreover, in test [1] (setting [7]), the KI (inactivation) was 50 µM and 54 µM.
As to `CCCCCCCNN` [compound 4], on Lysyl oxidase (LOX), the IC50 stood at 40 µM; the “Selectivity factor (LOX IC50 value divided by LSDAO IC50 value)” value stood at 1300; the “LOX k2 (range)” value was 0.079 (0.073–0.087) min^-1 and 0.07–0.09 min^-1 and 0.079 min^-1; the KI (inactivation) is 57 µM. Also, at Lysyl oxidase (LOX) (4 min), the remaining activity at 7 µM amounted to 89%, the remaining activity at 20 µM amounted to 82% and the remaining activity at 100 µM came out at 59%. On Lysyl oxidase (LOX) (10 min), the remaining activity at 7 µM came to 83%, the remaining activity at 20 µM is 63% and the remaining activity at 100 µM came to 30%. The compound also displayed a 50% inhibitory concentration (IC50) in test [1] of 0.03 µM. In test [1] (setting [4]), the remaining activity at 0.03 µM came to 81%, the remaining activity at 0.08 µM is 60%, the remaining activity at 0.1 µM was 43% and the remaining activity at 0.2 µM turned out to be 22%. Further, in test [1] (setting [4]), the remaining activity at 0.5 µM turned out to be 1% and the remaining activity at 1 µM was determined as 1%. In test [1] (setting [5]), the remaining activity at 0.03 µM was found to be 45%, the remaining activity at 0.08 µM is 15%, the remaining activity at 0.1 µM turned out to be 7% and the remaining activity at 0.2 µM stood at 2%. The “LSDAO k2 (range)” value in test [1] (setting [6]) was 1.0 (0.75–1.6) min^-1 and 1.0 min^-1. Besides, in test [1] (read-out: LSDAO KI^-1 (range); Kitz-Wilson analysis, reversible binding constant), the KI (inactivation) came to 0.9 µM.
Turning to `CCCCNC(=O)NN` [compound 5], at Lysyl oxidase (LOX), the IC50 came out at 100 µM, the “Selectivity factor (LOX IC50 value divided by LSDAO IC50 value)” value came out at 25, the “LOX k2 (range)” value was greater than 0.50 min⁻¹ and the KI (inactivation) is greater than 1000 µM. Further, at Lysyl oxidase (LOX) (4 min), the remaining activity at 40 µM is 93%, the remaining activity at 100 µM was 76% and the remaining activity at 500 µM was found to be 35%. In addition, on Lysyl oxidase (LOX) (10 min), the remaining activity at 40 µM came out at 78%, the remaining activity at 100 µM was found to be 52% and the remaining activity at 500 µM worked out at 6%. Besides, the IC50 in test [1] (setting [3]) was determined as 4 µM. For the same compound, in test [1] (setting [4]), the remaining activity at 1 µM was 89%, the remaining activity at 2 µM amounted to 78%, the remaining activity at 4 µM worked out at 69% and the remaining activity at 20 µM was found to be 41%. Further, the remaining activity at 100 µM in test [1] (setting [4]) came to 1%. Further, in test [1] (setting [5]), the remaining activity at 1 µM worked out at 84%, the remaining activity at 2 µM is 71%, the remaining activity at 4 µM was found to be 50% and the remaining activity at 20 µM amounted to 7%. Further, the “LSDAO k2 (range)” value in test [1] (setting [6]) is 0.91 (0.50–5.0) min^-1 and 0.91 min^-1. Also, the KI (inactivation) in test [1] (setting [7]) came to 112 µM.
